Like-named read-outs stand apart in the source and are kept apart here. One block for each compound: values may come before it.
Key:
PARP7 enzyme = PARP7 enzyme (Homo sapiens (Human), UniProt Q7Z3E1); assay: PARP7 enzymatic experiment (HTRF assay); type: biochemical; settings: 4PL fit
[1] = tested on: lung cancer cell line H1373 (high expression of PARP7); assay: Lung cancer cell proliferation inhibition experiment (CTG method); type: cell-based; settings: H1373 cells, 144 hrs incubation, Cell Titer Glo
[2] = Mouse pharmacokinetic study; type: in vivo; settings: Balb/c mouse; for clearance / Vd: iv; for Vd: read-out: Vss; for bioavailability: read-out: Oral BA (F %)
[3] = plasma, po, 100 mg/kg p.o. vs 3 mg/kg i.v.
[4] = plasma, po, single 100 mg/kg, p.o., read-out: Cmax
[5] = plasma, oral, 100 mg/kg p.o. vs 3 mg/kg i.v.

Sequence of PARP7 enzyme (Q7Z3E1 456-657): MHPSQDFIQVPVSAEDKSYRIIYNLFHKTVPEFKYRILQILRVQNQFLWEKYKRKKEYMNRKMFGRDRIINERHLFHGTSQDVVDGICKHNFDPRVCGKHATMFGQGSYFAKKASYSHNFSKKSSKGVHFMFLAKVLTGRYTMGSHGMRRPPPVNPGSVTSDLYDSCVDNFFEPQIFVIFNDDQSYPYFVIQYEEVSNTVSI

SMILES: C[C@@H](COCCC(=O)N1CCN2c3ncc(Cl)cc3N(C)C(=O)[C@@H]2C1)Nc1cn[nH]c(=O)c1C(F)(F)F (single isomer, unassigned) [Compound 20A]
- IC50 (PARP7 enzyme): 0.00151 µM
- IC50 ([1]; Homo sapiens, NCI-H1373, 144 h): 0.0539 µM
- pharmacokinetic properties (in words) [2]: good pharmacokinetic properties

SMILES: CC(C)N1C(=O)[C@@H]2CN(C(=O)CCOC[C@H](C)Nc3cn[nH]c(=O)c3C(F)(F)F)CCN2c2ncc(C(F)(F)F)cc21 (single isomer, unassigned) [Compound 24A]
- IC50 (PARP7 enzyme): 0.00207 µM
- pharmacokinetic properties (in words) [2]: good pharmacokinetic properties

SMILES: C[C@@H](COCCC(=O)N1CCN2c3ncc(C(F)(F)F)cc3SCC[C@@H]2C1)Nc1cn[nH]c(=O)c1C(F)(F)F (single isomer, unassigned) [Compound 71A]
- IC50 (PARP7 enzyme): 0.00153 µM
- IC50 [1]: 0.0139 µM
- pharmacokinetic properties (in words) [2]: good pharmacokinetic properties

SMILES: CCN1c2ncc(Cl)cc2OCC[C@@H]1CNC(=O)CCOC[C@@H](C)Oc1cn[nH]c(=O)c1C(F)(F)F (single isomer, unassigned) [Compound 84A]
- IC50 (PARP7 enzyme): 0.00101 µM
- IC50 [1]: 0.0215 µM
- Oral BA (F %) ([2]; 100 mg/kg p.o. vs 3 mg/kg i.v.): 106%
- CL ([2]; single 3 mg/kg, i.v.): 41 mL/min/kg
- Vss ([2]; single 3 mg/kg, i.v.): 0.5 L/kg
- AUClast ([2]; single 100 mg/kg, p.o.): 43382 ng·h/mL
- Cmax ([2]; single 100 mg/kg, p.o.): 15033 ng/mL

SMILES: Cc1c(Cl)cnc2c1OCC[C@@H]1CN(C(=O)CCOC[C@H](C)Oc3cn[nH]c(=O)c3C(F)(F)F)CCN21 (single isomer, unassigned) [Compound 85A]
- IC50 ([1]; Homo sapiens, NCI-H1373, 144 h): 0.0207 µM
- clearance ([2]; plasma, single 3 mg/kg): 60 mL/min/kg
- Vd ([2]; plasma, single 3 mg/kg, i.v.): 0.5 L/kg
- bioavailability [2, 3]: 301%
- AUC(0-t) ([2]; plasma, po, single 100 mg/kg): 86100 ng·h/mL
- Cmax [2, 4]: 24200 ng/mL

SMILES: C[C@@H](COCCC(=O)N1CCN2c3nc(F)c(Cl)cc3N(C)C(=O)[C@@H]2C1)Nc1cn[nH]c(=O)c1C(F)(F)F [Compound 14A]
- IC50 (PARP7 enzyme): 0.0106 µM
- pharmacokinetic properties (in words) [2]: good pharmacokinetic properties

SMILES: C[C@@H](COCCC(=O)N1CCN2c3ncc(F)cc3N(C3CC3)C(=O)[C@@H]2C1)Nc1cn[nH]c(=O)c1C(F)(F)F [Compound 28A]
- IC50 (PARP7 enzyme): 0.00753 µM
- IC50 [1]: 0.275 µM

SMILES: C[C@@H](COCCC(=O)N1CCN2c3ncc(F)cc3N(C3CC3)C(=O)[C@@H]2C1)Nc1cn[nH]c(=O)c1C(F)(F)F [Compound 28B]
- IC50 (PARP7 enzyme): 0.00787 µM
- IC50 [1]: 0.761 µM

- IC50 ([1]; Homo sapiens, NCI-H1373, 144 h): 0.013 µM
- pharmacokinetic properties (in words) [2]: good pharmacokinetic properties
SMILES: Cc1c2n(c3ncc(C(F)(F)F)cc13)CCN(C(=O)CCOC[C@H](C)Oc1cn[nH]c(=O)c1C(F)(F)F)C2 [Compound 45]

- IC50 ([1]; Homo sapiens, NCI-H1373, 144 h): 0.0609 µM
- clearance ([2]; plasma, single 3 mg/kg): 16 mL/min/kg
- Vd ([2]; plasma, single 3 mg/kg, i.v.): 0.5 L/kg
- bioavailability [2, 5]: 90%
- AUC(0-t) ([2]; plasma, po, single 100 mg/kg): 95200 ng·h/mL
- Cmax [2, 4]: 41100 ng/mL
SMILES: C[C@@H](COCCC(=O)N1CCn2c(cc3cc(C(F)(F)F)cnc32)C1)Oc1cn[nH]c(=O)c1C(F)(F)F [Compound 47A]

SMILES: C[C@@H](COCCC(=O)N1CCN2c3ncc(C(F)(F)F)cc3OC[C@@H]2C1)Oc1cn[nH]c(=O)c1C(F)(F)F [Compound 51]
- IC50 ([1]; Homo sapiens, NCI-H1373): 0.0346 µM
- clearance ([2]; plasma, single 3 mg/kg): 22 mL/min/kg
- Vd ([2]; plasma, single 3 mg/kg, i.v.): 0.5 L/kg
- bioavailability [2, 5]: 121%
- AUC(0-t) ([2]; plasma, po, single 100 mg/kg): 91400 ng·h/mL
- Cmax [2, 4]: 38200 ng/mL

SMILES: C[C@@H](COC[C@@H](O)C(=O)N1CCN2c3ncc(Cl)cc3OCCC2C1)Nc1cn[nH]c(=O)c1C(F)(F)F (some centres unmarked) [Compound 64A]
- IC50 (PARP7 enzyme): 0.0015 µM
- IC50 ([1]; Homo sapiens, NCI-H1373, 144 h): 0.208 µM

SMILES: CC(=O)c1c(N[C@@H](C)COCCC(=O)N2CCN3c4ncc(C(F)(F)F)cc4OCC3C2)cn[nH]c1=O (some centres unmarked) [Compound 69]
- IC50 (PARP7 enzyme): 0.00392 µM
- IC50 [1]: 0.483 µM

SMILES: C[C@@H](COCCC(=O)N1CCN2c3ncc(Cl)cc3SCC[C@@H]2C1)Nc1cn[nH]c(=O)c1C(F)(F)F [Compound 73A]
- IC50 (PARP7 enzyme): 0.000769 µM
- IC50 ([1]; Homo sapiens, NCI-H1373, 144 h): 0.0223 µM

SMILES: C[C@@H](COCCC(=O)N1CCN2c3ncc(C(F)(F)F)cc3[C@@](C)(O)[C@@H]2C1)Nc1cn[nH]c(=O)c1C(F)(F)F [Compound 79A]
- IC50 (PARP7 enzyme): 0.00725 µM
- IC50 ([1]; Homo sapiens, NCI-H1373, 144 h): 0.572 µM

- IC50 (PARP7 enzyme): 0.00467 µM
- IC50 ([1]; Homo sapiens, NCI-H1373, 144 h): 0.341 µM
SMILES: C[C@@H](COCCC(=O)N1CCN2c3ncc(C(F)(F)F)cc3[C@](C)(O)[C@@H]2C1)Nc1cn[nH]c(=O)c1C(F)(F)F [Compound 79B]

SMILES: C[C@@H](COCCC(=O)N1CCN2c3ncc(C(F)(F)F)cc3[C@@](C)(O)[C@H]2C1)Nc1cn[nH]c(=O)c1C(F)(F)F [Compound 79C]
- IC50 (PARP7 enzyme): 0.00477 µM
- IC50 ([1]; Homo sapiens, NCI-H1373, 144 h): 0.456 µM

SMILES: C[C@@H](COCCC(=O)N1CCN2c3ncc(C(F)(F)F)cc3[C@](C)(O)[C@H]2C1)Nc1cn[nH]c(=O)c1C(F)(F)F [Compound 79D]
- IC50 (PARP7 enzyme): 0.00318 µM
- IC50 ([1]; Homo sapiens, NCI-H1373, 144 h): 0.742 µM

SMILES: C[C@@H](COCCC(=O)N1CCN2c3ncc(C(F)(F)F)cc3C(O)CC2C1)Nc1cn[nH]c(=O)c1C(F)(F)F (some centres unmarked) [Compound 80]
- IC50 (PARP7 enzyme): 0.000946 µM
- IC50 [1]: 0.151 µM

SMILES: C[C@H](COCCC(=O)N1CCN2c3ncc(Cl)cc3N(C)C(=O)[C@@H]2C1)Nc1cn[nH]c(=O)c1C(F)(F)F [Compound 82A]
- IC50 (PARP7 enzyme): 0.000744 µM
- IC50 ([1]; Homo sapiens, NCI-H1373, 144 h): 0.0475 µM
- clearance ([2]; plasma, single 3 mg/kg): 32 mL/min/kg
- Vd ([2]; plasma, single 3 mg/kg, i.v.): 0.4 L/kg
- bioavailability [2, 3]: 48%
- AUC(0-t) ([2]; plasma, po, single 100 mg/kg): 26400 ng·h/mL
- Cmax [2, 4]: 21700 ng/mL

SMILES: C[C@H](COCCC(=O)N1CCN2c3ncc(Cl)cc3N(C)C(=O)[C@H]2C1)Nc1cn[nH]c(=O)c1C(F)(F)F [Compound 82B]
- IC50 (PARP7 enzyme): 0.000892 µM
- IC50 ([1]; Homo sapiens, NCI-H1373, 144 h): 0.0216 µM

SMILES: Cc1c(Cl)cnc2c1OCC[C@H]1CN(C(=O)CCOC[C@H](C)Oc3cn[nH]c(=O)c3C(F)(F)F)CCN21 [Compound 85B]
- IC50 (PARP7 enzyme): 0.00784 µM
- IC50 ([1]; Homo sapiens, NCI-H1373, 144 h): 0.311 µM

SMILES: C[C@@H](COCCC(=O)N1CCN2c3ncc(C(F)(F)F)cc3SCC[C@@H]2C1)Oc1cn[nH]c(=O)c1C(F)(F)F [Compound 86A]
- IC50 (PARP7 enzyme): 0.0025 µM
- IC50 ([1]; Homo sapiens, NCI-H1373, 144 h): 0.0119 µM
- clearance ([2]; plasma, single 3 mg/kg): 54 mL/min/kg
- Vd ([2]; plasma, single 3 mg/kg, i.v.): 1.4 L/kg
- bioavailability [2, 3]: 66%
- AUC(0-t) ([2]; plasma, po, single 100 mg/kg): 20300 ng·h/mL
- Cmax [2, 4]: 7860 ng/mL

SMILES: C[C@@H](COCCC(=O)N1CCN2c3ncc(C(F)(F)F)cc3SCC[C@H]2C1)Oc1cn[nH]c(=O)c1C(F)(F)F [Compound 86B]
- IC50 (PARP7 enzyme): 0.0205 µM
- IC50 ([1]; Homo sapiens, NCI-H1373, 144 h): 0.246 µM

SMILES: CN1C(=O)[C@@H]2CN(C(=O)CCOC[C@@H]3CCN3c3cn[nH]c(=O)c3C(F)(F)F)CCN2c2ncc(Cl)cc21 [Compound 88A]
- IC50 (PARP7 enzyme): 0.000416 µM
- IC50 ([1]; Homo sapiens, NCI-H1373, 144 h): 0.00217 µM

SMILES: CN1C(=O)[C@H]2CN(C(=O)CCOC[C@@H]3CCN3c3cn[nH]c(=O)c3C(F)(F)F)CCN2c2ncc(Cl)cc21 [Compound 88B]
- IC50 (PARP7 enzyme): 0.000446 µM
- IC50 ([1]; Homo sapiens, NCI-H1373, 144 h): 0.00294 µM

SMILES: O=C(CCOC[C@@H]1CCN1c1cn[nH]c(=O)c1C(F)(F)F)N1CCN2c3ncc(C(F)(F)F)cc3OC[C@@H]2C1 [Compound 89A]
- IC50 (PARP7 enzyme): 0.000696 µM
- IC50 ([1]; Homo sapiens, NCI-H1373, 144 h): 0.0106 µM

SMILES: O=C(CCOC[C@@H]1CCN1c1cn[nH]c(=O)c1C(F)(F)F)N1CCN2c3ncc(C(F)(F)F)cc3OC[C@H]2C1 [Compound 89B]
- IC50 (PARP7 enzyme): 0.000658 µM
- IC50 ([1]; Homo sapiens, NCI-H1373, 144 h): 0.00692 µM

SMILES: O=C(CCOC[C@@H]1CCN1c1cn[nH]c(=O)c1C(F)(F)F)N1CCn2c(cc3cc(C(F)(F)F)cnc32)C1 [Compound 91]
- IC50 (PARP7 enzyme): 0.000496 µM
- IC50 ([1]; Homo sapiens, NCI-H1373, 144 h): 0.0113 µM

SMILES: Cc1c2n(c3ncc(C(F)(F)F)cc13)CCN(C(=O)CCOC[C@@H]1CCN1c1cn[nH]c(=O)c1C(F)(F)F)C2 [Compound 92]
- IC50 (PARP7 enzyme): 0.000686 µM
- IC50 ([1]; Homo sapiens, NCI-H1373, 144 h): 0.00802 µM

SMILES: O=C(CCOC[C@@H]1CCN1c1cn[nH]c(=O)c1C(F)(F)F)N1CCN2c3ncc(C(F)(F)F)cc3C(F)(F)C[C@@H]2C1 [Compound 93A]
- IC50 (PARP7 enzyme): 0.00282 µM
- IC50 ([1]; Homo sapiens, NCI-H1373, 144 h): 0.0156 µM

SMILES: O=C(CCOC[C@@H]1CCN1c1cn[nH]c(=O)c1C(F)(F)F)N1CCN2c3ncc(C(F)(F)F)cc3C(F)(F)C[C@H]2C1 [Compound 93B]
- IC50 (PARP7 enzyme): 0.00209 µM
- IC50 ([1]; Homo sapiens, NCI-H1373, 144 h): 0.0104 µM

- IC50 (PARP7 enzyme): 0.00327 µM
- IC50 [1]: 0.0221 µM
SMILES: CC(OCCC(=O)N1CCN2c3ncc(C(F)(F)F)cc3N(C)C(=O)C2C1)[C@@H]1CCN1c1cn[nH]c(=O)c1C(F)(F)F (some centres unmarked) [Compound 96]

Source: patent US20240336629A1, “Tricyclic Derivatives Useful As PARP7 Inhibitors” (JACOBIO PHARMACEUTICALS CO., LTD., priority 2021, published 2024)
